Results published in patent US20090192169A1, “Bicyclic Benzimidazole Compounds and Their Use as Metabotropic Glutamate Receptor Potentiators” (priority 2006, published 2009).

Biological target: T1, human mGluR2 (Homo sapiens, UniProt Q14416)
T1 construct: expressed in transfected cells
Experiment: [35S]-GTPγS binding assay of mGluR2 receptor activation (allosteric activator activity)
Format: biochemical
Conditions: membranes from CHO cells stably expressing human mGluR2; in presence of 1 μM glutamate
Procedure: A [^35S]-GTPγS binding assay was used to functionally assay mGluR2 receptor activation. The allosteric activator activity of compounds at the human mGluR2 receptor was measured using a [^35S]-GTPγS binding assay with membranes prepared from CHO cells which stably express the human mGluR2. The assay is based upon the principle that agonists bind to G-protein coupled receptors to stimulate GDP-GTP exchange at the G-protein. Since [^35S]-GTPγS is a non-hydrolysable GTP analog, it can be used to provide an index of GDP-GTP exchange and, thus, receptor activation. The GTPγS binding assay therefore provides a quantitative measure of receptor activation.
Membranes were prepared from CHO cells stably transfected with human mGluR2. Membranes (30 μg protein) were incubated with test compound (3 nM to 300 μM) for 15 minutes at room temperature prior to the addition of 1 μM glutamate, and incubated for 30 min at 30° C. in 500 μl assay buffer (20 mM HEPES, 100 mM NaCl, 10 mM MgCl2), containing 30 μM GDP and 0.1 nM [^35S]-GTPγS (1250 Ci/mmol). Reactions were carried out in triplicate in 2 ml polypropylene 96-well plates. Reactions were terminated by vacuum filtration using a Packard 96-well harvester and Unifilter-96, GF/B filter microplates. The filter plates were washed 4×1.5 ml with ice-cold wash buffer ([…] sodium phosphate buffer, pH 7.4). The filter plates were dried and 35 μl of scintillation fluid (Microscint 20) was added to each well. The amount of radioactivity bound was determined by counting plates on the Packard TopCount. Data was analyzed using GraphPad Prism, and EC50 and Emax values (relative to the maximum glutamate effect) were calculated using non-linear regression.

T1 sequence (Q14416 19-872): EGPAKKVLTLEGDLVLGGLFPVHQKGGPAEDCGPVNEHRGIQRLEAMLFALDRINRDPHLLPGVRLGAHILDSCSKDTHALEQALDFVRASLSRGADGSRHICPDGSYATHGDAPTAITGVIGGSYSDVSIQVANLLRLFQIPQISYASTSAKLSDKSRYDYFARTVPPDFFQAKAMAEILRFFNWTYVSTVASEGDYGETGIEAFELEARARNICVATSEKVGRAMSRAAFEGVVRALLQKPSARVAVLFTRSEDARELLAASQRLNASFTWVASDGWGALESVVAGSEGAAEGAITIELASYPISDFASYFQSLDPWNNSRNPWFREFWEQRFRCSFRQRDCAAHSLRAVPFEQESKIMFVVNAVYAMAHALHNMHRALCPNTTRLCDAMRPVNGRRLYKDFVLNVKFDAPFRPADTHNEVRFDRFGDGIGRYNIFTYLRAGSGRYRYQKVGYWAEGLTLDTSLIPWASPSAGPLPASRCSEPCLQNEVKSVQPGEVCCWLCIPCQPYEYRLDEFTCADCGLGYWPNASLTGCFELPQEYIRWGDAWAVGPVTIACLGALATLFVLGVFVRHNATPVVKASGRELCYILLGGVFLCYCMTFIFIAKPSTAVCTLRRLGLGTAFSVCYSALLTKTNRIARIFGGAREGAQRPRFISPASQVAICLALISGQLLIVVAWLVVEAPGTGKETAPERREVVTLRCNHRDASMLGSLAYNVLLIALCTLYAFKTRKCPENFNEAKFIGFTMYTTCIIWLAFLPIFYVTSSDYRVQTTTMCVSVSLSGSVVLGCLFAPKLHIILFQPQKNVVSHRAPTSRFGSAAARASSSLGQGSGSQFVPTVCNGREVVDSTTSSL

Row | SMILES | EC50 [nM]
1 | Cn1c(CN2CCC(O)(c3ccc(Cl)cc3)CC2)nc2ccccc21 [Example 1.75, 4-(4-Chloro-phenyl)-1-(1-methyl-1H-benzoimidazol-2-ylmethyl)-piperidin-4-ol] | 8610
2 | CCn1c(CN2CCC(c3ccccc3)(c3ccccc3)CC2)nc2ccccc21 [Example 1.54, 2-(4,4-Diphenyl-piperidin-1-ylmethyl)-1-ethyl-1H-benzoimidazole] | 1040

Further lines, results first:

Row | EC50 [nM] | SMILES
3 | 79.5 | Cc1cccc2nc(CN3CCC(c4ccc(F)cc4)CC3)n(C)c12 [Example 1.49, 2-[4-(4-Fluoro-phenyl)-piperidin-1-ylmethyl]-1,7-dimethyl-1H-benzoimidazole]
4 | 187 | Cn1c(CN2CCN(c3ccc(Cl)c(Cl)c3)CC2)nc2ccccc21 [Example 26.8, 2-[4-(3,4-Dichloro-phenyl)-piperazin-1-ylmethyl]-1-methyl-1H-benzoimidazole]
5 | 57 | Cc1cccc2nc(CN3CCC(CCOc4ccc(F)c(F)c4)CC3)n(C)c12 [Example 1.2, 2-{4-[2-(3,4-Difluoro-phenoxy)-ethyl]-piperidin-1-ylmethyl}-1,7-dimethyl-1H-benzoimidazole]
